Experimental data reported in patent publication US8410173B2, “Inhibition of JAK2 as a treatment of pulmonary arterial hypertension” (YM Biosciences Australia Pty Ltd, priority 2006, dated 2013).
“Also recorded” adds a separate entry of the source. Marks after values point to notes of the source that are not given here.

Legend:
[1] = tested on: plexiform lesions in lungs of monocrotaline treated rats; test: histological studies (H&E) of lungs, rat monocrotaline model; assay type: in vivo; conditions: AG490 1 mg/kg tid, H&E stains of formalin fixed lungs
Protocol: A. Normal lung; B. Lung from monocrotaline treated animal. C. Lung from rat given monocrotaline and AG490 1 mg/kg tid. The arrows point to pulmonary arterioles.
Histological studies of the lungs from group 2 and group 5 were performed to determine the effect of selective JAK2 inhibition on the pulmonary vascular lesions associated with PAH.

[2] = tested on: rat monocrotaline model of pulmonary arterial hypertension; test: rat monocrotaline model of pulmonary arterial hypertension, RV pressures; assay type: in vivo; conditions: for RVEDP Mean / RVS Mean Difference (I − J) vs group 1 (saline control) / RVS Mean Difference (I − J) vs group 2 (monocrotaline, vehicle): day 21
Protocol: To test the efficacy of JAK2 inhibition as a treatment for PAH, the rat monocrotaline model of pulmonary arterial hypertension was used. Animals with pulmonary arterial hypertension induced by monocrotaline were treated for three weeks with the selective JAK2 inhibitor, AG490, or vehicle. AG490 is a tyrphostin based tyrosine kinase inhibitor selective for JAK2.

[3] = tested on: rat monocrotaline model of PAH; conditions: cited from earlier work; for efficacy in the rat monocrotaline model of PAH: sildenafil oral, alone or in combination with beraprost
[4] = group 3, AG490 1 mg/kg/day SID IP
[5] = group 4, AG490 3 mg/kg/day SID IP
[6] = group 5, AG490 1 mg/kg/dose TID IP

## N#C/C(=C\c1ccc(O)c(O)c1)C(=O)NCc1ccccc1 [AG490]
[1]
  plexiform lesions associated with pulmonary arterial hypertension: prevented the formation of plexiform lesions; also recorded: decreased
[2]; AG490 1 mg/kg tid, day 21, p=0.023
  reduction of RV systolic pressure vs vehicle treated group: 24%
[2]; AG490 1 mg/kg tid, monocrotaline treated rats, day 21 (group 5), vehicle 38.44±3.1
  RV systolic pressure: 29.23±4.5 mm Hg
[2]; group 3, AG490 1 mg/kg/day
  RV systolic pressure improvement, in words: No improvement
[2]; [4]
  RVEDP Mean Difference (I − J) vs group 1 (saline control): 5.5436
  RVEDP Mean Difference (I − J) vs group 2 (monocrotaline, vehicle): −.0585
  RVEDP Mean: 4.042 mm Hg
  RVS Mean Difference (I − J) vs group 1 (saline control): 11.468*
  RVS Mean Difference (I − J) vs group 2 (monocrotaline, vehicle): −2.487
[2]; [5]
  RVEDP Mean Difference (I − J) vs group 1 (saline control): .6433
  RVEDP Mean Difference (I − J) vs group 2 (monocrotaline, vehicle): −4.9588
  RVEDP Mean: −.858 mm Hg
  RVS Mean Difference (I − J) vs group 1 (saline control): 6.730
  RVS Mean Difference (I − J) vs group 2 (monocrotaline, vehicle): −7.225
[2]; group 5, AG490 1 mg/kg tid, p=0.023, 1 mg/kg
  RV systolic pressure compared to group 2 (vehicle only), in words: significantly reduced; also recorded: significant reduction; also recorded: significantly lower
[2]; group 5, AG490 1 mg/kg tid, p=0.05
  RV End diastolic pressure compared to group 2 (vehicle), in words: significantly lower
[2]; [6]
  RVEDP Mean Difference (I − J) vs group 1 (saline control): −.0193
  RVEDP Mean Difference (I − J) vs group 2 (monocrotaline, vehicle): −5.6214*
  RVEDP Mean: −1.521 mm Hg
  RVS Mean Difference (I − J) vs group 1 (saline control): 4.741
  RVS Mean Difference (I − J) vs group 2 (monocrotaline, vehicle): −9.214*

## O=S(=O)(c1cccc2cnccc12)N1CCCNCC1 [fasudil]
[3]; rat monocrotaline model
  progression of PAH: prevented the progression of PAH
  pulmonary arterial hypertension, pulmonary vascular lesions, endothelial cell dysfunction, and RV hypertrophy: decreased
  survival: improved survival

## COc1ccccc1Oc1c(NS(=O)(=O)c2ccc(C(C)(C)C)cc2)nc(-c2ncccn2)nc1OCCO [bosentan]
[3]; rat monocrotaline model
  pulmonary artery thickening: decrease pulmonary artery thickening
  pulmonary hypertension: reduce pulmonary hypertension

## CC#CCC(C)[C@H](O)/C=C/[C@@H]1[C@H]2C/C(=C/CCCC(=O)O)C[C@H]2C[C@H]1O (stereo partly shown) [iloprost]
[3]
  efficacy in the rat monocrotaline model of PAH: showed efficacy

## O=C(C(=O)N1CCn2nc(-c3ccc(F)cc3)c(-c3ccncc3)c2N1)c1ccccc1.O=S(=O)(O)O [FR167653]
[3]; rat monocrotaline model
  progression of PAH: decrease the progression of PAH

## CCCc1nn(C)c2c(=O)[nH]c(-c3cc(S(=O)(=O)N4CCN(C)CC4)ccc3OCC)nc12 [sildenafil]
[3]
  efficacy in the rat monocrotaline model of PAH: showed efficacy

## Cc1ccc(NC(=O)c2ccc(CN3CCN(C)CC3)cc2)cc1Nc1nccc(-c2cccnc2)n1 [imantinib]
[3]; rat monocrotaline model
  RV systolic pressure: decreased
  survival: improved survival
